Data on one molecule can be found in patent US20210393540A1, “NANOPARTICLE-ENCAPSULATED CANNABINOIDS AND METHODS FOR MAKING AND USING SAME” (NuRevelation, LLC, priority 2020, published 2021).

The nature of the series: Stability of CBD after encapsulation into nanoparticles, by NMR spectra. It is filed as physicochemical. Conditions: NMR spectrum of CBD after encapsulation into nanoparticles (bottom) relative to non-encapsulated CBD sample (top), FIG. 3. The source says: In some aspects, the cannabinoid in the dispersion can have a purity of at least 90%. In a further aspect, the purity of the cannabinoid in the dispersion ranges from 90-100%. In a still further aspect, the purity of the cannabinoid in the dispersion ranges from 92-97%. In general, the inventors have discovered that the encapsulation process described herein can be improved with the use of a pure cannabinoid starting material (e.g., from 92-97% pure). Similarly, the nanoparticle encapsulated cannabinoid products can advantageously maintain the purity of the cannabinoid over extended periods of time. In some aspects, the purity of the cannabinoid starting material can be maintained once encapsulated for a period of twelve months or longer, e.g., 18 months or longer, or even 24 months or longer. The stable shelf life of the cannabinoid nanoparticles is an advantage over many existing methods for delivering cannabinoid products. In some aspects, the stability of the cannabinoid can be measured using NMR, e.g., by comparing a pre-encapsulated cannabinoid to a cannabinoid extracted from a nanoparticle prepared by a disclosed method.

For `C=C(C)[C@@H]1CCC(C)=C[C@H]1c1c(O)cc(CCCCC)cc1O` [CBD, cannabidiol], the “stability of CBD after encapsulation” value is on record as “remains intact”.
